Source: patent US6737425B1, “N,N-substituted cyclic amine derivatives” (Eisai Co., Ltd., priority 1998, dated 2004)
pIC50: −log10 of the molar value. Several values for one entry are separate records, joined by “and”; a condition that tells them apart may be missing. Equal entries are not always repeated.

How the values were obtained:
[1] = system: rat model with occlusion in the middle cerebral artery; experiment: Effect (I) of reducing infarct volume in a rat model with occlusion in the middle cerebral artery (2 hours occlusion); assay type: in vivo; conditions: for Infarct volume in the cerebral cortex, Mean: from 30 minutes after occlusion, 6 hours, 2 hours occlusion, 24 hours after occlusion; for reduction of infarct volume in the cerebral cortex: vs control group
Protocol: Effect (I) of Reducing Infarct Volume in a Rat Model with Occlusion in the Middle Cerebral Artery
The compound in Example 1 was selected as the typical example of the compound of the present invention, and this sample was dissolved in 5.28% mannitol to be adjusted to a dosage of 5 or 10 mg/kg/h just before use. The concentration of the sample was calculated on the basis of the average weight of animals, as shown in the following example. The average weight was determined by measuring the weights of all animals to be used in the experiment.
For occlusion in the middle cerebral artery, an embolus prepared from nylon yarn of 4-0 monofilament (Ethicon, Inc., Somerville, N.J., USA) was used. The end of the nylon embolus was previously rounded with flame, and it was cut into fragments of 25 mm in length, and each fragment was marked at a position 17 mm apart from the end with an oil-based felt pen.
Implantation of a catheter for intravenous administration (Atom venous catheter 3Fr, Atom Medical Co., Ltd., Tokyo) was conducted under anesthesia with 70% laughing gas-2% halothane. The catheter filled with physiological saline was inserted through the thigh vein in the left leg.
Occlusion in the middle cerebral artery was conducted in accordance with the method of Longa et al. (12). Just after the catheter was implanted, the operation was conducted under anesthesia with 70% laughing gas-2% halothane. A rat was allowed to lie on the back and the cervical region was cut open under a stereoscopic microscope for operation, and the part where the common carotid artery at the right side branched into the external carotid artery and the internal carotid artery was confirmed. The external carotid artery was cut at the peripheral side, and the nylon embolus was inserted through the end of the cut external carotid artery into the internal carotid artery. The embolus was inserted until the position 17 mm apart from the end of the embolus reached the point where the external carotid artery was joined to the internal carotid artery, and the embolus was fixed. To initiate blood stream again, the nylon embolus was removed 2 hours after the middle cerebral artery was occluded. […]
Twenty four hours after the middle cerebral artery was occluded, the head was cut off from the rat and the brain was taken out. […] The sample was left at room temperature for at least 1 hour in the TTC solution and then measured for the infarct area. […]

[2] = system: glutamic acid release from rat cerebral cortex slices; experiment: Inhibitory activity on glutamic acid release (cerebral cortex slices, high-conc. KCl); assay type: cell-based; conditions: glutamic acid release induced with 50 mM KCl, HPLC
Protocol: Inhibitory Activity on Glutamic Acid Release
Cerebral cortexes were isolated from SD strain male rats (8-week-old) and used to prepare 300 μm×300 μm slices by use of a slice chopper. The prepared slices were incubated at 37° C. for 30 minutes in solution C (120 mM NaCl, 4 mM KCl, 10 mM MgSO4, 16 mM NaHCO3, 10 mM glucose, 1 mM NaH2PO4, 10 mM HEPES-NaOH pH 7.4) in the presence of 95% O2/5% CO2. Thereafter, solution C was exchanged with fresh one, followed by further incubation for 30 minutes.
The cerebral cortex slices were incubated in a 24-wells plate for cell culture according to a multi-well method (Brain Res., 402, 255-263, 1987), and the release of glutamic acid was induced with 50 mM KCl. Solution D (120 mM NaCl, 4 mM KCl, 1.2 mM CaCl2, 1 mM MgSO4, 16 mM NaHCO3, 10 mM glucose, 1 mM NaH2PO4, 10 mM HEPES-NaOH pH 7.4) was aerated with 95% O2/5% CO2 and kept at 37° C. and used in this experiment. 50 mM KCl containing the same total amount of K^+ and Na^+ was prepared. Slices corresponding to 1 to 2 mg protein were placed on an upper cup provided with a mesh at the bottom, and 1.3 ml solution C or 50 mM KCl solution was introduced into a lower well, and the upper cup was transferred to a new well. 20 minutes before and 5 minutes after reaction was intiated, the test compound was added to solution D or 50 mM KCl.
Glutamic acid was quantified by HPLC using fluorescent etor (Ex. 330 nm Em. […]). The eluting solvent used was prepared by diluting 150 ml sodium citrate buffer for automatic amino acid analysis (Wako Pure Chemical Industries) 10-fold with distilled water, then adding MgCl2 thereto at the final concentration of 50 mM, and further diluting it twice with acetonitrile. The flow rate was 2.0 ml/min. The column used was Asahipak (ES-502N Denko, K. K.). The glutamic acid was converted into a derivative by addition, to 50 μl sample, of 50 μl deriving agent (10 mg o-phthalaldehyde/500 μl MeOH, 10 μl b-mercaptopropionic acid, 0.15 M sodium borate buffer pH 9.5, 100 μl) followed by stirring (Neuroscience Lett., 96, 202-206, 1989).

[3] = system: voltage-dependent calcium channels (cerebral cortex synaptosome); experiment: Measurement of voltage-dependent calcium channel activity by the use of a fluorescent pigment (fura 2); assay type: cell-based; conditions: rat cerebral cortex synaptosome, fura 2, KCl stimulation, compound incubated 10 minutes
Outline: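 Synaptosomes were prepared from rat cerebral cortex by sucrose homogenisation and 0.8 M sucrose gradient centrifugation. They were loaded with fura-2/AM by mixing with an equal volume of 4 μM loading solution for 40 min at room temperature. Verapamil hydrochloride served as the reference compound.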

CC(C)C(C#N)(CCCN1CCN(CCOc2ccc(F)cc2)CC1)c1ccccc1 (stereo not drawn) [Example 1, 1-[(4-Cyano-5-methyl-4-phenyl)hexyl]-4-[2-(4-fluorophenoxy)ethyl]piperazine]
Infarct volume in the cerebral cortex, Mean ([1]; 5 mg/kg/h i.v. (table: 5 mg/kg)): 162.2±16.3 mm^3 and 162.17 mm^3
reduction of infarct volume in the cerebral cortex ([1]; 5 mg/kg/h i.v.): 28%
Infarct volume in the cerebral cortex, Mean ([1]; 10 mg/kg/h i.v. (table: 10 mg/kg)): 135.5±26.2 mm^3 and 135.50 mm^3
reduction of infarct volume in the cerebral cortex ([1]; 10 mg/kg/h i.v.): 40%
pIC50 [2]: 5.46
pIC50 [3]: 5.23
